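Cells were grown in 96-well plates and exposed to each compound for 48 hours at five concentrations; endpoints were interpolated linearly between bracketing concentrations, or set to the highest concentration if not reached. GI50: concentration for 50% inhibition of growth. At the TGI there is no net growth.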
Key:
Experiment in all cases: NCI-60 cell line screen, 48 h
HOP-92 NSCLC = system: HOP-92 NSCLC
NCI-H522 lung = system: NCI-H522 lung
MDA-MB-435 = system: MDA-MB-435
NCI/ADR-RES ovarian = system: NCI/ADR-RES ovarian
SNB-75 CNS = system: SNB-75 CNS
MOLT-4 leukemia = system: MOLT-4 leukemia
NCI-H226 lung = system: NCI-H226 lung
HCC-2998 colon = system: HCC-2998 colon
HL-60(TB) leukemia = system: HL-60(TB) leukemia
U251 CNS = system: U251 CNS
SN12C renal = system: SN12C renal
DU-145 prostate = system: DU-145 prostate
HS 578T breast = system: HS 578T breast
HT29 colon = system: HT29 colon
SK-MEL-5 melanoma = system: SK-MEL-5 melanoma
SF-539 CNS = system: SF-539 CNS
A498 renal = system: A498 renal
HOP-62 NSCLC = system: HOP-62 NSCLC
KM12 colon = system: KM12 colon
RXF 393 renal = system: RXF 393 renal
EKVX NSCLC = system: EKVX NSCLC
SF-295 CNS = system: SF-295 CNS
NCI-H23 lung = system: NCI-H23 lung
HCT-15 colon = system: HCT-15 colon
SW-620 colon = system: SW-620 colon
BT-549 breast = system: BT-549 breast
TK-10 renal = system: TK-10 renal
SK-MEL-2 melanoma = system: SK-MEL-2 melanoma

O=C(NN1C(=O)/C(=C/C=C/c2ccc([N+](=O)[O-])o2)SC1=S)c1ccncc1
GI50 (HOP-92 NSCLC): 1650 nM | TGI (HOP-92 NSCLC): 3350 nM | GI50 (NCI-H522 lung): 189 nM | TGI (NCI-H522 lung): 414 nM | GI50 (MDA-MB-435): 634 nM | TGI (MDA-MB-435): 2220 nM | GI50 (NCI/ADR-RES ovarian): 1420 nM | TGI (NCI/ADR-RES ovarian): 7080 nM | GI50 (SNB-75 CNS): 1330 nM | TGI (SNB-75 CNS): 7000 nM | GI50 (MOLT-4 leukemia): 403 nM | TGI (MOLT-4 leukemia): 2210 nM | GI50 (NCI-H226 lung): 1190 nM | TGI (NCI-H226 lung): 4020 nM | GI50 (HCC-2998 colon): 1770 nM | TGI (HCC-2998 colon): 3190 nM | GI50 (HL-60(TB) leukemia): 1920 nM | TGI (HL-60(TB) leukemia): 4830 nM | GI50 (U251 CNS): 1030 nM | TGI (U251 CNS): 2660 nM | GI50 (SN12C renal): 369 nM | TGI (SN12C renal): 1620 nM | GI50 (DU-145 prostate): 1960 nM | TGI (DU-145 prostate): 4800 nM | GI50 (HS 578T breast): 1740 nM | TGI (HS 578T breast): 8200 nM | GI50 (HT29 colon): 1650 nM | TGI (HT29 colon): 3540 nM | GI50 (SK-MEL-5 melanoma): 1050 nM | TGI (SK-MEL-5 melanoma): 2240 nM | GI50 (SF-539 CNS): 402 nM | TGI (SF-539 CNS): 1450 nM | GI50 (A498 renal): 17100 nM | TGI (A498 renal): 31000 nM | GI50 (HOP-62 NSCLC): 1580 nM | TGI (HOP-62 NSCLC): 3140 nM | GI50 (KM12 colon): 1630 nM | TGI (KM12 colon): 4010 nM | GI50 (RXF 393 renal): 1260 nM | TGI (RXF 393 renal): 2650 nM | GI50 (EKVX NSCLC): 1480 nM | TGI (EKVX NSCLC): 2890 nM | GI50 (SF-295 CNS): 1760 nM | TGI (SF-295 CNS): 3270 nM | GI50 (NCI-H23 lung): 1230 nM | TGI (NCI-H23 lung): 2670 nM | GI50 (HCT-15 colon): 184 nM | TGI (HCT-15 colon): 404 nM | GI50 (SW-620 colon): 274 nM | TGI (SW-620 colon): 739 nM | GI50 (BT-549 breast): 495 nM | TGI (BT-549 breast): 1660 nM | GI50 (TK-10 renal): 1630 nM | TGI (TK-10 renal): 3030 nM | GI50 (SK-MEL-2 melanoma): 584 nM | TGI (SK-MEL-2 melanoma): 2020 nM
